Results as given in the OPERA property sets (Mansouri et al. 2018).

Details: for log10 biotransformation half-life (days) / log10 BCF: fish

Structure (SMILES) | boiling point [°C] | melting point [°C] | also measured
C=CCCCCCCCCCCC | 233 | -13 | log10 vapour pressure (mmHg): -1.2; log10 biotransformation half-life (days): 0.73
FC(F)(F)C(F)(F)C(F)(F)C(F)(F)C(F)(F)C(F)(F)C(F)(F)C(F)(F)C(F)(F)C(F)(F)Br | 198 |  | 
O=C(O)c1cc(=O)c2cccc(O)c2[nH]1 |  | 289 | 
FC(F)(F)c1ccc(Cl)cc1Cl | 178 | -26 | log10 vapour pressure (mmHg): 0.0449; log10 BCF: 3.37; log10 biotransformation half-life (days): 1.81
CCCC(=O)OCCC(C)C | 179 | -73.2 | log10 vapour pressure (mmHg): -0.0223
CC(=O)c1cccnc1 | 220 | 13.5 | log10 Henry constant (atm·m³/mol): -7.67
CCC(=O)NC | 148 | -30.9 | log10 vapour pressure (mmHg): 0.0603
N#CCCC[Si](Cl)(Cl)Cl | 238 |  | 
CC(C)NCC(O)COc1cccc2[nH]ccc12 (stereo not drawn) |  | 171 | 
c1c[nH]cn1 | 257 | 90.5 | ready biodegradability: readily biodegradable
CCCCCOC(C)=O | 149 | -70.8 | log10 Henry constant (atm·m³/mol): -3.41; log10 Koa: 4.12; log10 vapour pressure (mmHg): 0.544
NS(=O)(=O)c1ccccc1 |  | 151 | ready biodegradability: not readily biodegradable; log10 BCF: 0.68; log10 biotransformation half-life (days): -0.71
CCCC(=O)O |  | -5.7 | log10 Henry constant (atm·m³/mol): -6.27; log10 vapour pressure (mmHg): 0.217; ready biodegradability: readily biodegradable
O=C(O)c1ccc(Br)c([N+](=O)[O-])c1 |  | 204 | 
O=[N+]([O-])c1c(Cl)c(Cl)c(Cl)c(Cl)c1Cl | 328 | 144 | log10 Koc (L/kg): 3.98; log10 vapour pressure (mmHg): -4.3; ready biodegradability: not readily biodegradable; log10 BCF: 2.74; log10 biotransformation half-life (days): -0.17
CCCCOC(=O)C(Cl)Cl | 194 |  | 
CCOP(=S)(Oc1ccc(C#N)cc1)c1ccccc1 (stereo not drawn) |  | 83 | 
C=CC(C)(C)O | 97 | -28 | log10 Henry constant (atm·m³/mol): -4.68
CCC(C)c1cccc(C(C)CC)c1O (stereo not drawn) | 258 | -42 | ready biodegradability: not readily biodegradable; log10 BCF: 2.39; log10 biotransformation half-life (days): -0.22
CC[Si](F)(CC)CC | 110 |  | log10 vapour pressure (mmHg): 1.57
O=C[C@H](O)C(O)[C@H](O)CO (stereo in doubt) |  |  | log10 vapour pressure (mmHg): -9.71
Cc1cccc(C=O)c1 | 199 |  | 
CCc1ccc(C)nc1 | 178 | -70.9 | log10 vapour pressure (mmHg): 0.155
O=C(O)c1cc(F)c(F)c(F)c1 |  | 98 | 
CC1(C)CO1 | 52 |  | 
C=C(C)C(=O)OCCCCCCCCCCCC |  | -7 | 

Structure (SMILES) | boiling point [°C] | melting point [°C] | also measured
CCCCCCCCCCCCCC(C)=O | 294 | 39.5 | 
Cc1ccc2nc3c(ccc4ccccc43)c(C)c2c1 |  | 159 | 
C#CCCC#C | 86 | -6 | 
Nc1nc(Cl)cc(Cl)n1 |  | 220 | 
O=C(c1ccccc1)c1c(F)c(F)c(F)c(F)c1F |  | 37 | 
CC(C)(OCc1ccc(-c2ccc(Cl)cc2)cc1)C(=O)O |  | 154 | 
CCN(CC)C(C)=O | 186 |  | log10 Koc (L/kg): 1.84
C1=NNCC1 | 144 |  | 
CC(CNC(=O)c1ccccc1)C(=O)OCC(=O)[C@@]12OC(C)(C)O[C@@H]1C[C@H]1[C@@H]3CCC4=CC(=O)C=C[C@]4(C)[C@@]3(F)[C@@H](O)C[C@@]12C (stereo partly drawn) |  | 205 | 
COC(=O)c1ccccn1 |  | 18.7 | 
Brc1cc(Br)c(Oc2c(Br)c(Br)c(Br)c(Br)c2Br)c(Br)c1Br |  |  | log10 BCF: 5.75
N#CC#CC#N |  | 20.5 | 
CC(C)Nc1nc(Cl)nc(NC2CC2)n1 |  | 167 | log10 vapour pressure (mmHg): -6.52
COc1ccc(COC(=O)Cc2ccccc2)cc1 | 370 |  | 
N#CCCS(=O)(=O)O.[Na+] |  | 244 | 
C1CC2CC1C1OC21 (stereo not drawn) |  | 123 | 
C1=CCOC1 | 66.5 |  | log10 vapour pressure (mmHg): 2.2
SCCCCS | 196 | -53.9 | 
CCCCCCOc1ccccc1C(N)=O |  | 71 | 
CCCCCSC | 145 | -94 | 
CCCCCCCCCCCN | 242 | 17 | 
CCCCCCCCCCCC(=O)CC |  | 34 | 
NC(=O)Cc1ccccc1 |  | 157 | 
CC(=O)N(CC(C)C(=O)O)c1c(I)cc(I)c(N)c1I (stereo not drawn) |  | 224 | 
CCCc1ccc(C)cc1 | 183 | -63.6 | log10 vapour pressure (mmHg): 0.043
CC(C)(N)CO | 166 | 25.5 | log10 vapour pressure (mmHg): 0

Structure (SMILES) | boiling point [°C] | melting point [°C] | also measured
CCCB(CCC)CCC | 159 | -56 | 
CCCCC(=O)CCC | 163 |  | 
CCCOP(OCCC)OCCC | 206 |  | 
O=[N+]([O-])CBr | 149 |  | log10 vapour pressure (mmHg): 0.491
Cc1ccc2cc3c(ccc4ccccc43)c3c2c1CC3 |  | 180 | log10 Koc (L/kg): 6.1; log10 vapour pressure (mmHg): -7.37; ready biodegradability: not readily biodegradable
CCCC[Si](Cl)(Cl)Cl | 148 |  | 
OOC1CCCCC1 |  | -20 | 
Cc1cc2ccoc2cc1C | 221 |  | 
CCCCCCCCC=CCCCCCCCC(=O)OCCS(=O)(=O)[O][Na] |  |  | ready biodegradability: readily biodegradable
Clc1cccs1 | 128 | -71.9 | log10 vapour pressure (mmHg): 1.38
CC(=O)Oc1cccc(C(=O)O)c1OC(C)=O |  | 149 | 
c1ccc([Si](c2ccccc2)(c2ccccc2)c2ccccc2)cc1 |  | 236 | 
c1ccc(-c2c3ccccc3nc3ccccc23)cc1 | 404 | 184 | 
COc1ccc2cc3[n+](cc2c1OC)CCc1cc2c(cc1-3)OCO2 |  | 145 | 
Brc1cccnc1 | 173 |  | log10 vapour pressure (mmHg): 0.244
CCCCC(CC)CCC (stereo not drawn) | 164 |  | 
CC(C)COc1ccccc1 | 198 |  | 
CC(C)CCC(=O)O | 200 | -33 | 
O=C(O)CCCCC1CCSS1 (stereo not drawn) |  | 60.5 | 
C=CCCCCCCCCC=C | 208 |  | 
C=Cc1ccc(F)cc1 |  | -34.5 | 
CN(C)c1ccc(Cc2ccc(N(C)C)cc2)cc1 | 390 | 91.5 | log10 Koc (L/kg): 3.96; ready biodegradability: not readily biodegradable; log10 biotransformation half-life (days): -0.04
CCOc1cc(NC(C)=O)ccc1C(=O)OC |  | 148 | 
CC(C)(C)C(O)C(Oc1ccc(Cl)cc1)n1cncn1 (stereo not drawn) |  | 124 | log10 Koc (L/kg): 2.7; log10 vapour pressure (mmHg): -9.51
Cc1c(C(N)=O)cc([N+](=O)[O-])cc1[N+](=O)[O-] |  | 177 | 
Cc1cccc2sc3nncn3c12 | 275 | 187 | log10 Koc (L/kg): 3.09; log10 vapour pressure (mmHg): -6.7

Structure (SMILES) | boiling point [°C] | melting point [°C] | also measured
CCOC(=O)C(C(=O)OCC)C(=O)OCC | 253 | 29 | 
c1ccc2[nH]ccc2c1 | 254 | 52.5 | log10 vapour pressure (mmHg): -1.91; ready biodegradability: readily biodegradable
O=Cc1cc2c(cc1[N+](=O)[O-])OCO2 |  | 93.5 | 
O=Cc1ccc2ccccc2c1 |  | 62 | 
CC(=O)Cc1ccco1 | 180 | 29 | 
O=C(O)CCCCCCCCCCCCC1C=CCC1 (stereo not drawn) |  | 68.5 | 
C=C1CCC1=C | 64 |  | 
c1ccc(N=NNc2ccccc2)cc1 |  | 98 | log10 vapour pressure (mmHg): -4.72
C=CCc1cc(OC)c2c(c1)OCO2 | 276 |  | 
Cc1c(C)c2c3ccccc3ccc2c2ccccc12 |  | 129 | 
C=C(C)C(=O)Nc1ccc(Cl)c(Cl)c1 |  | 128 | 
CC(=O)Oc1cccc2ccccc12 |  | 44.5 | 
c1cc[nH]c1 | 130 | -23.4 | log10 Henry constant (atm·m³/mol): -4.74; log10 vapour pressure (mmHg): 0.922; ready biodegradability: readily biodegradable
C=CC(=O)OCCOCC | 174 | -47 | 
CC(=O)CCCO | 209 |  | 
C=CC#CC | 59.5 |  | 
COC(=O)C(C)Oc1ccc(Oc2ncc(C(F)(F)F)cc2Cl)cc1 (stereo not drawn) |  | 56 | log10 Koc (L/kg): 1.88; log10 vapour pressure (mmHg): -5.22; log10 BCF: 1.23; log10 biotransformation half-life (days): -1.08
c1ccc(Cc2c3ccccc3c(Cc3ccccc3)c3ccccc23)cc1 |  | 246 | 
CC(=O)Nc1ccccc1 | 304 | 114 | log10 Koc (L/kg): 1.43; log10 vapour pressure (mmHg): -3.7; ready biodegradability: readily biodegradable
CC[C@H](CC[C@@H](C)[C@H]1CC[C@H]2[C@@H]3CC=C4C[C@@H](O)CC[C@]4(C)[C@H]3CC[C@]12C)C(C)C |  | 144 | 
CCCCOCCC | 118 |  | 
CC(C)Oc1cccc(NC(=O)c2ccccc2C(F)(F)F)c1 |  | 104 | log10 vapour pressure (mmHg): -7.31; log10 BCF: 1.29; log10 biotransformation half-life (days): -0.61
c1cc2c(c(NC3=NCCN3)c1)CCCC2 |  | 142 | 
O=S(=O)(Cl)c1c(F)c(F)c(F)c(F)c1F | 210 |  | 
CNC(=S)NCO |  | 89 | 
O=C(O)Cc1cccc([N+](=O)[O-])c1 |  | 118 | 

Structure (SMILES) | boiling point [°C] | melting point [°C] | also measured
CCCCC(O)C(=O)O (stereo not drawn) | 305 | 61 | log10 vapour pressure (mmHg): -5.5
CCOC(=O)C(C)OC(=O)c1cc(Oc2ccc(C(F)(F)F)cc2Cl)ccc1[N+](=O)[O-] (stereo not drawn) |  | 45 | log10 Koc (L/kg): 4
O=[N+]([O-])c1cccc(S(=O)(=O)NCCNS(=O)(=O)c2cccc([N+](=O)[O-])c2)c1 |  | 190 | 
NC(=O)OCC(COC(N)=O)c1ccccc1 |  | 152 | 
CC(C)(C)c1ccccn1 | 170 | -33 | 
C[C@]12CCC(=O)C=C1CC[C@@H]1[C@@H]2CC[C@@]2(C)[C@H]1CC[C@]2(O)C(=O)CO |  | 215 | 
CCC(OC(N)=O)C1CCCCC1 (stereo not drawn) |  | 128 | 
COc1ccccc1OC(=O)c1ccccc1 |  | 57.5 | 
BrC(c1ccccc1)c1ccccc1 |  | 45 | 
OCCCl | 129 | -67.5 | log10 Koa: 4.3; log10 vapour pressure (mmHg): 0.856; ready biodegradability: readily biodegradable
O=[N+]([O-])c1cc([N+](=O)[O-])c2ccccc2c1O |  | 131 | 
O=C(O)c1ccc([N+](=O)[O-])c([N+](=O)[O-])c1 |  | 166 | log10 Koc (L/kg): 1.53
CC1(C)CCCC1 | 87.5 | -69.8 | log10 biodegradation half-life (days): 1.28; log10 vapour pressure (mmHg): 1.88
O=C1CCSc2ccccc21 |  | 29 | 
S=C1SCN(Cc2ccccc2)CN1Cc1ccccc1 |  | 102 | 
N=C(N)N |  | 50 | 
CC1=C(C)S(=O)(=O)CCS1(=O)=O |  | 165 | log10 Koc (L/kg): 0.48; log10 vapour pressure (mmHg): -6.42
CCCCCCCCCCCCCCCC(N)=O |  | 107 | ready biodegradability: not readily biodegradable
Cc1c(NC(=O)C(C)N(C)C)c(=O)n(-c2ccccc2)n1C (stereo not drawn) |  | 181 | 
C=COCCCC | 94 | -92 | log10 vapour pressure (mmHg): 1.69
CCCCCCCCc1ccc(N)cc1 | 310 | 20 | ready biodegradability: readily biodegradable
CC(C)CO |  |  | log10 Henry constant (atm·m³/mol): -5.01; log10 Koa: 3.93; log10 vapour pressure (mmHg): 1.02; ready biodegradability: readily biodegradable
Brc1ccccc1Br | 225 | 7.1 | 
